From PMC3025057 (Experimental parasitology, 2010)

Molecular target: Trypanosoma brucei hexokinase 1 (TbHK1) (Trypanosoma brucei, UniProt Q38C42)
Experiment: G6PDH-coupled hexokinase assay with recombinant enzyme
Assay type: biochemical

`O=c1c(O)c(-c2ccc(O)c(O)c2)oc2cc(O)cc(O)c12` [QCN, 3,3′,4′,5,7-pentahydroxyflavone] was tested, and the Ki was 2900 ± 900 nM.
